Measured values reported in ChEMBL document CHEMBL3351452, “Chemical synthesis, cytotoxicity, selectivity and bioavailability of 5α-androstane-3α,17β-diol derivatives” (Bioorg Med Chem, 2014).

Assays:
[1] = Cytotoxicity against human peripheral blood lymphocytes assessed as assessed as CD3+ T cells population at 5 uM after 5 days by flow cytometry analysis (reference value: 73.8%); type: cell-based; conditions: lymphocyte, 120 h
[2] = Cytotoxicity against human peripheral blood lymphocytes assessed as assessed as CD3+/CD4+ T cells population at 5 uM after 5 days by flow cytometry analysis (reference value: 41.4%); type: cell-based; conditions: lymphocyte, 120 h
[3] = Cytotoxicity against human peripheral blood lymphocytes assessed as assessed as CD19+ B cells population at 0.1 uM after 5 days by flow cytometry analysis (reference value: 2%); type: cell-based; conditions: lymphocyte, 120 h
Cytochrome P450 3A4 = Cytochrome P450 3A4 (Homo sapiens, UniProt P08684); assay: Inhibition of CYP3A4 (unknown origin) using AMMC by fluorescence assay; type: ADME
Cytochrome P450 3A4, sequence (P08684 whole entry): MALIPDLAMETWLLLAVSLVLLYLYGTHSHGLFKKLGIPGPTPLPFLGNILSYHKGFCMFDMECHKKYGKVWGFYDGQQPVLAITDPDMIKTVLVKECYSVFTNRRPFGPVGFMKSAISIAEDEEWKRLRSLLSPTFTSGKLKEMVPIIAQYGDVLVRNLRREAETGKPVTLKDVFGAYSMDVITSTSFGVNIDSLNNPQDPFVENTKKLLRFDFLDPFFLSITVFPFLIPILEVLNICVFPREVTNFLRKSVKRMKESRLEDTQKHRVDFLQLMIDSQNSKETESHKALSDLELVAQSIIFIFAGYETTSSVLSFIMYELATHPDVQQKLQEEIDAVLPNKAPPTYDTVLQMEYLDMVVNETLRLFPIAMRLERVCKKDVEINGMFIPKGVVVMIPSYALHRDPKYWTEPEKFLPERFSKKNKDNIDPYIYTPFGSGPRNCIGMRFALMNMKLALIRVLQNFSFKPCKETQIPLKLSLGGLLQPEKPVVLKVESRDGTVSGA

Cytochrome P450 2D6 = Cytochrome P450 2D6 (Homo sapiens, UniProt P10635); assay: Inhibition of CYP2D6 (unknown origin) using AMMC by fluorescence assay; type: ADME
Cytochrome P450 2D6, sequence (P10635 whole entry): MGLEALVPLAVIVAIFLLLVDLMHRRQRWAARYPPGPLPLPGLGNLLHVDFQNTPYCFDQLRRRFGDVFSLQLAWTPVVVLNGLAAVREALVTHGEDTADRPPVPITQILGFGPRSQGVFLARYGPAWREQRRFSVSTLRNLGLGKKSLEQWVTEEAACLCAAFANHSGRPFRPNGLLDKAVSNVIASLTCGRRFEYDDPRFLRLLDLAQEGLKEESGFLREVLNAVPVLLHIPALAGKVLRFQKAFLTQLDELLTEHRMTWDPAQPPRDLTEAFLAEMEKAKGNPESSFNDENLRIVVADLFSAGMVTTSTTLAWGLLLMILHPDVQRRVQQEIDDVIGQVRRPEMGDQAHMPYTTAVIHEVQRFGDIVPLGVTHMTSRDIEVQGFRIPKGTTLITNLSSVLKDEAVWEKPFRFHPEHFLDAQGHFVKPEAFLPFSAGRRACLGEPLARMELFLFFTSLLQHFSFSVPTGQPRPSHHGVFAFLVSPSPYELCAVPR

[4] = Cytotoxicity against human peripheral blood lymphocytes assessed as assessed as CD19+ B cells population at 30 uM after 5 days by flow cytometry analysis (reference value: 2%); type: cell-based; conditions: lymphocyte, 120 h
[5] = Cytotoxicity against human peripheral blood lymphocytes assessed as assessed as CD19+ B cells population at 5 uM after 5 days by flow cytometry analysis (reference value: 2%); type: cell-based; conditions: lymphocyte, 120 h
[6] = Cytotoxicity against human peripheral blood lymphocytes assessed as assessed as CD4+/CD8+ […] ratio at 30 uM after 5 days by flow cytometry analysis (reference value: 2.7%); type: cell-based; conditions: lymphocyte, 120 h
[7] = Cytotoxicity against human peripheral blood lymphocytes assessed as assessed as CD3+/CD4+ T cells population at 1 uM after 5 days by flow cytometry analysis (reference value: 41.4%); type: cell-based; conditions: lymphocyte, 120 h
[8] = Plasma concentration in Sprague-Dawley rat at 2.3 mg/kg, sc measured at 12 hrs by LC/MS/MS analysis; type: ADME, organism-based; design: dose 2.3 mg/kg, route subcutaneous
[9] = Cytotoxicity against human peripheral blood lymphocytes assessed as assessed as CD4+/CD8+ […] ratio at 10 uM after 5 days by flow cytometry analysis (reference value: 2.7 %); type: cell-based; conditions: lymphocyte, 120 h
HL-60 = assay: Antiproliferative activity against human HL-60 cells assessed as reduction in cell growth after 24 hrs by MTS assay; type: functional, cell-based; conditions: HL-60, 24 h
[10] = Cytotoxicity against human peripheral blood lymphocytes assessed as assessed as CD3+/CD8 T cells population at 5 uM after 5 days by flow cytometry analysis (reference value: 15.2 %); type: cell-based; conditions: lymphocyte, 120 h
[11] = Cytotoxicity against human peripheral blood lymphocytes assessed as assessed as CD19+ B cells population at 10 uM after 5 days by flow cytometry analysis (reference value: 2%); type: cell-based; conditions: lymphocyte, 120 h
[12] = Cytotoxicity against human peripheral blood lymphocytes assessed as assessed as CD3+ T cells population at 50 uM after 5 days by flow cytometry analysis (reference value: 73.8%); type: cell-based; conditions: lymphocyte, 120 h
[13] = Cytotoxicity against human peripheral blood lymphocytes assessed as assessed as CD3+/CD8 T cells population at 30 uM after 5 days by flow cytometry analysis (reference value: 15.2 %); type: cell-based; conditions: lymphocyte, 120 h
MCF7 = assay: Antiproliferative activity against human MCF7 cells assessed as reduction in cell growth after 24 hrs by MTS assay; type: functional, cell-based; conditions: MCF7, 24 h
[14] = Cytotoxicity against human peripheral blood lymphocytes assessed as assessed as CD3+/CD8 T cells population at 1 uM after 5 days by flow cytometry analysis (reference value: 15.2%); type: cell-based; conditions: lymphocyte, 120 h
[15] = Cytotoxicity against human peripheral blood lymphocytes assessed as assessed as CD3+/CD8 T cells population at 50 uM after 5 days by flow cytometry analysis (reference value: 15.2 %); type: cell-based; conditions: lymphocyte, 120 h
[16] = Plasma concentration in Sprague-Dawley rat at 2.3 mg/kg, sc measured at 3 hrs by LC/MS/MS analysis; type: ADME, organism-based; design: dose 2.3 mg/kg, route subcutaneous
[17] = Cytotoxicity against human peripheral blood lymphocytes assessed as assessed as CD3+ T cells population at 10 uM after 5 days by flow cytometry analysis (reference value: 73.8%); type: cell-based; conditions: lymphocyte, 120 h
[18] = Cytotoxicity against human peripheral blood lymphocytes assessed as assessed as CD3+/CD4+ T cells population at 50 uM after 5 days by flow cytometry analysis (reference value: 41.4%); type: cell-based; conditions: lymphocyte, 120 h
[19] = Cytotoxicity against human peripheral blood lymphocytes assessed as assessed as CD3+/CD4+ T cells population at 10 uM after 5 days by flow cytometry analysis (reference value: 41.4 %); type: cell-based; conditions: lymphocyte, 120 h
[20] = Cytotoxicity against human peripheral blood lymphocytes assessed as assessed as CD3+ T cells population at 1 uM after 5 days by flow cytometry analysis (reference value: 73.8%); type: cell-based; conditions: lymphocyte, 120 h
[21] = Cytotoxicity against human peripheral blood lymphocytes assessed as assessed as CD4+/CD8+ […] ratio at 1 uM after 5 days by flow cytometry analysis (reference value: 2.7%); type: cell-based; conditions: lymphocyte, 120 h
T47D = assay: Antiproliferative activity against human T47D cells assessed as reduction in cell growth after 24 hrs by MTS assay; type: functional, cell-based
[22] = Cytotoxicity against human peripheral blood lymphocytes assessed as assessed as CD3+/CD4+ T cells population at 30 uM after 5 days by flow cytometry analysis (reference value: 41.4%); type: cell-based; conditions: lymphocyte, 120 h
[23] = Cytotoxicity against human peripheral blood lymphocytes assessed as assessed as CD3+/CD8 T cells population at 10 uM after 5 days by flow cytometry analysis (reference value: 15.2 %); type: cell-based; conditions: lymphocyte, 120 h
[24] = Cytotoxicity against human peripheral blood lymphocytes assessed as assessed as CD3+ T cells population at 0.1 uM after 5 days by flow cytometry analysis (reference value: 73.8%); type: cell-based; conditions: lymphocyte, 120 h
[25] = Cytotoxicity against human peripheral blood lymphocytes assessed as assessed as CD3+/CD4+ T cells population at 0.1 uM after 5 days by flow cytometry analysis (reference value: 41.4%); type: cell-based; conditions: lymphocyte, 120 h
[26] = Cytotoxicity against human peripheral blood lymphocytes assessed as assessed as CD19+ B cells population at 1 uM after 5 days by flow cytometry analysis (reference value: 2%); type: cell-based; conditions: lymphocyte, 120 h
LNCaP = assay: Antiproliferative activity against human LNCAP cells assessed as reduction in cell growth after 24 hrs by MTS assay; type: functional, cell-based
[27] = Cytotoxicity against human peripheral blood lymphocytes assessed as assessed as CD3+/CD8 T cells population at 0.1 uM after 5 days by flow cytometry analysis (reference value: 15.2 %); type: cell-based; conditions: lymphocyte, 120 h
[28] = Cytotoxicity against human peripheral blood lymphocytes assessed as assessed as CD3+ T cells population at 30 uM after 5 days by flow cytometry analysis (reference value: 73.8%); type: cell-based; conditions: lymphocyte, 120 h
[29] = Cytotoxicity against human peripheral blood lymphocytes assessed as assessed as CD4+/CD8+ […] ratio at 5 uM after 5 days by flow cytometry analysis (reference value: 2.7%); type: cell-based; conditions: lymphocyte, 120 h
[30] = Cytotoxicity against human peripheral blood lymphocytes assessed as assessed as CD19+ B cells population at 50 uM after 5 days by flow cytometry analysis (reference value: 2%); type: cell-based; conditions: lymphocyte, 120 h
[31] = Cytotoxicity against mouse WEHI13 cells assessed as cell proliferation after 48 hrs by MTT assay; type: cell-based; conditions: WEHI13, 48 h
[32] = Cytotoxicity against human peripheral blood lymphocytes assessed as assessed as CD4+/CD8+ […] ratio at 0.1 uM after 5 days by flow cytometry analysis (reference value: 2.7%); type: cell-based; conditions: lymphocyte, 120 h
[33] = Cytotoxicity against human peripheral blood lymphocytes assessed as assessed as CD4+/CD8+ […] ratio at 50 uM after 5 days by flow cytometry analysis (reference value: 2.7%); type: cell-based; conditions: lymphocyte, 120 h

`C#C[C@]1(O)CC[C@H]2[C@@H]3CC[C@H]4C[C@H](O)[C@@H](N5CCN(C(=O)[C@@H]6CCCN6C(=O)c6ccc7ccccc7n6)CC5)C[C@]4(C)[C@H]3CC[C@@]21C` gave an Activity [1] of 59.1%, an Activity [2] of 19.5% and an Activity [3] of 1.1%. For the same molecule, the IC50 (Cytochrome P450 3A4) was 3.8 µM, the IC50 (Cytochrome P450 2D6) was 25 µM and the Activity [4] was 1.9%. The Activity [5] was 1.7%, the Activity [6] was 216% and the Activity [7] was 16.6%. It also gave a concentration at 12 h [8] of 15.7 ng/mL, an Activity [9] of 11.3% and an IC50 (HL-60) of 0.1 µM. The Activity [10] was 3.3%, the Activity [11] was 1.4% and the Activity [12] was 62.1%. For the same molecule, the Activity [13] was 0.1%, the IC50 (MCF7) was 0.1 µM and the Activity [14] was 3.3%. For the same molecule, the Activity [15] was 0.1%, the concentration at 3 h [16] was 151 ng/mL and the Activity [17] was 55.1%. The Activity [18] was 23.1%, the Activity [19] was 18.4% and the Activity [20] was 53.7%. For the same molecule, the Activity [21] was 5%, the IC50 (T47D) was 0.1 µM and the Activity [22] was 21%. For the same molecule, the Activity [23] was 1.6%, the Activity [24] was 57.5% and the Activity [25] was 16.9%. It also gave an Activity [26] of 2.2%, an IC50 (LNCaP) of 2 µM and an Activity [27] of 12.1%. It also gave an Activity [28] of 58.5%, an Activity [29] of 6% and an Activity [30] of 1.8%. It also gave an IC50 [31] of 1.1 µM, an Activity [32] of 1.4% and an Activity [33] of 231%.
